The results in this text go back to US10513534B2, “2′-chloro nucleoside analogs for HCV infection” (priority 2012, dated 2019).

Data set [1] is described as follows: Cytotoxicity evaluation, CellTiter-Blue Cell Viability Assay. Particulars: human.
Data set [2] concerns HCV genotype 1b replicon. Put plainly: HCV replicon assay (Zluc luciferase). Format: cell-based. Particulars: read-out: HCV Replicon EC50. A digest of the protocol: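 Zluc Huh-7 cells with HCV genotype 1b replicon and luciferase reporter treated with 5-fold dilutions (100 μM to 0.0000512 μM final) in duplicate, or at 1 and 10 μM. Luminescence read with ONE-glo; EC50 from dose-response fits, or % inhibition at the fixed concentrations.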
On the technique in general: In antiviral work, replicon cells carry a viral genome segment that copies itself.

The nature of data set [3]: in vitro. The note with it: human.
Data set [4] in a line: Stability in liver microsomes. Format: in vitro ADME. The note with it: human liver microsomes 1.0 mg/mL, 10 μM, NADPH, 60 min. The procedure:
(§1) Stability of test compounds were determined in human liver and intestinal microsomes in duplicate for each matrix. Pooled liver and intestinal microsomal proteins (1.0 mg/mL), suspended in incubation buffer (100 mM potassium phosphate, pH 7.4, 5 mM MgCl2, and 0.1 mM EDTA), were preincubated for 5 min at 37° C. with 10 μM of a test compound from a 10 mM stock solution in DMSO (final DMSO concentration was 0.1%); the reaction was initiated by the addition of NADPH (3 mM final concentration). At specific times (0 and 60 min), 0.1 mL samples were taken and the reaction terminated by the addition of 4 volumes of stop solution (acetonitrile with 500 ng/mL carbutamide as an internal standard). The samples were vortexed for 30 sec and then centrifuged at 16000×g for 10 min. 100 μL of supernatants were transferred to 96 deep-well plates preloaded with 100 μL distilled water and analyzed after mixing by LC-MS/MS. The MS peak area ratio of the test compound versus the internal standard was calculated and percent unchanged test compound over 60 minutes was calculated using this ratio.
For orientation: Microsomes from liver hold many membrane-bound enzymes, among them those of drug oxidation.

The nature of data set [5]: Stability in intestinal microsomes. The note with it: human intestinal microsomes 1.0 mg/mL, 10 μM, NADPH, 60 min. Format: in vitro ADME. As for the experimental part:
as §1

For data set [6], the system named is Huh-7 cells. The experiment in a line: Release of active metabolite in Huh-7 cells. Format: in vitro ADME. As for the experimental part:
Huh-7 cells were plated in 1 mL culture medium (DMEM, containing glucose, L-glutamine and sodium pyruvate, 10% FBS, 100 IU/mL penicillin, 100 μg/mL streptomycin, 2 mM GlutaMAX, 1% MEM non-essential amino acids) at the concentration 0.8, 0.4 and 0.2 million cells per well on 6 well plates for 24, 48 and 72 hr treatment, respectively. Plated cells were incubated overnight at 37° C. in an incubator.
The following morning test compound was diluted to 20 μM from a stock solution in DMSO in fresh culture medium pre-warmed to 37° C. and 1 mL of the solution/well was added to cells. A final medium volume per well was 2.0 mL, test compound concentration in well was 10 μM and final DMSO concentration was 0.1%.
After 24, 48 or 72 hr, the medium was carefully removed and cell monolayers were washed twice with 2 mL ice-cold PBS per well. Following the last wash, all PBS was carefully removed and 1.0 mL of extraction solution (ice-cold 70% methanol) added. The plate was tightly covered with Parafilm, plastic plate cover and Parafilm again and an intracellular content was extracted at −20° C. for 24 hr.
After 24 hr the extracts were transferred into polypropylene microfuge tubes and dry on a refrigerated centrivap concentrator. Dry residues were reconstituted in 250 μL of HPLC-grade water and centrifuged at 16,000×g for 10 min. Aliquots (100 μL each) of the supernatants were transferred into a 96 well plate and internal standard (4 ng/mL final concentration) was added as the internal standard (IS) for LC-MS/MS analysis.

Data set [7] is described as follows: Liver triphosphate pharmacokinetics after single oral dose in CD-1 mice.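 On Ms Liver TP AUC: pmol·h/g liver normalized to a 1 µmol/kg dose.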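 On Ms Liver TP Cmax: pmol/g liver normalized to a 1 µmol/kg dose.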 Particulars: single oral dose 10 mg/kg in PEG 200. Format: in vivo. As for the experimental part:
Internal standard solution was added to the homogenate followed by neutralization with 20% ammonium hydroxide solution and addition of 500 μL 1% formic acid. The tissue samples were extracted by weak anion exchange solid phase extraction (SPE). Post extraction, the eluates were evaporated under nitrogen, followed by reconstitution before injection onto the LC-MS/MS system.

A short description of data set [8]: Plasma nucleoside pharmacokinetics after single oral dose in CD-1 mice.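 On Ms Plasma nucleoside AUC: pmol·h/mL plasma normalized to a 1 µmol/kg dose.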 Format: in vivo. Particulars: single oral dose 10 mg/kg in PEG 200. A digest of the protocol:
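Mouse plasma was extracted by acetonitrile/0.2% formic acid protein precipitation using 2′-MeG-D3 or tiapride as internal standard. Nucleoside was quantified by positive-ion LC-MS/MS after C18 gradient separation. Calibration spanned 0.500 (LLOQ) to 200 ng/mL.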

Data set [9] relates to Zluc cells. Put plainly: Cytotoxicity evaluation, CellTiter-Blue Cell Viability Assay. The note with it: Zluc cells, CellTiter-Blue. (In general: Resazurin is reduced to fluorescent resorufin, in cell work by metabolically active cells.)
The nature of data set [10]: Plasma prodrug and nucleoside pharmacokinetics after single oral dose in cynomolgus monkeys. Format: in vivo. The note with it: single oral 10 mg/kg. The procedure:
(§2) For each compound, a single oral dose at 10 mg/kg in PEG 200 (dose volume 3 mL/kg) was administered to cynomolgus monkeys. Untreated animals were used for the collection of control liver. Plasma samples were collected at 0.5, 1, 2, 4, 6, 8, 12 and 24 hours for compound 37, diastereomer 2.
Plasma samples were analyzed for the prodrug and nucleoside by LC-MS/MS. For protein precipitation and extraction, each plasma sample (50 μL) was treated with 500 μL of 0.2% formic acid in acetonitrile and 20 μL of an appropriate internal standard working solution. After vortexing and centrifugation, 500 µL of the sample extracts were transferred to a new plate, dried under N2 at ˜28° C. and reconstituted with 75 μL of 0.2% FA in water. The extracts were chromatographed on an Aquasil C18 column using a gradient system of 0.2% formic acid in water and acetonitrile. The analytes were detected and quantified by tandem mass spectrometry in positive ion mode on an MDS Sciex API4000 equipped with a Turbo Ionspray® interface.

The nature of data set [11]: Liver triphosphate pharmacokinetics after single oral dose in cynomolgus monkeys. Format: in vivo. As for the experimental part:
as §2
Liver samples were analyzed for the relevant nucleoside triphosphate by LC-MS/MS. […] Appropriate internal standard solution was added to the homogenate followed by neutralization with 20% ammonium hydroxide solution and addition of 500 μL 1% formic acid. The tissue samples were extracted by weak anion exchange solid phase extraction (SPE). Post extraction, the eluates were evaporated under nitrogen, followed by reconstitution before injection onto the LC-MS/MS system.

Data set [12] relates to fresh mouse hepatocytes. Put plainly: Release of active metabolite in fresh mouse hepatocytes. Format: in vitro ADME. Particulars: 10 μM. The procedure:
Plates of fresh human and mouse hepatocytes were obtained on ice. The medium was removed and replaced with hepatocyte culture medium (William's E supplemented with penicillin-streptomycin, 1% L-glutamine, 1% insulin-transferrin-selenium and 0.1 μM Dexamethasone (Invitrogen) or with Invitro GRO HI medium complemented with Torpedo antibiotics (Celsis)). Cells were left overnight in an incubator at 37° C. to acclimatize to culture and the medium.
Hepatocyte incubations were conducted at a final volume of 0.5 mL hepatocyte culture medium/well (0.8 million cells/well for human and 0.5 million cells/well for mouse; 12 well plate no overlay, collagen coat). Culture medium from overnight incubation of cells was removed and replaced with fresh medium, pre-warmed to 37° C., containing 10 μM of test compound from a stock solution in DMSO (final DMSO concentration was 0.1%). At each specific time point, incubation medium was removed and cell monolayers were carefully washed two times with ice-cold PBS. Following the last wash, all PBS was carefully removed and 1.0 mL of extraction solution (ice-cold 70% methanol/30% water) added. Cells were scraped off and suspended in the extraction solution, transferred to 2 mL polypropylene microfuge tubes and intracellular contents extracted overnight at −20° C.
After the overnight treatment the cellular extracts were prepared by centrifugation at 16,000×g for 10 min to remove cellular debris. The remaining sample was then dried using a refrigerated centrivap concentrator. Dry extracts were reconstituted in 1000 μL of HPLC-grade water and centrifuged at 16,000×g for 10 min. Aliquots (100 μL each) of the supernatant were transferred into a 96 well plate and internal standard (4 ng/mL final concentration) was added as the internal standard (IS) for LC-MS/MS analysis.
The incubation time points were 6, 24 and 48 hours for human hepatocytes and 1, 4, 8, 12 and 24 hours for mouse hepatocytes.

[13] abbreviates: single oral 10 mg/kg, normalized to 1 μmol/kg dose.

Where two headings read alike, the source gives them in different places.

By EC50 is commonly meant the concentration giving half of the maximal effect. Regarding `CCOC(=O)COP(=O)(OC[C@H]1O[C@@H](n2ccc(=O)[nH]c2=O)[C@](C)(Cl)[C@@H]1O)Oc1ccccc1` (mixture of isomers) [Compound 72 Mixture of P-Diastereoisomers], the CC50 in data set [1] is more than 50 µM. The EC50 in data set [2] (Hepatitis C virus, 72 h) is more than 10 µM.
For the compound `CC(C)OC(=O)[C@H](C)NP(=O)(OC[C@H]1O[C@@H](n2ccc(=O)[nH]c2=O)[C@](C)(Cl)[C@@H]1O)Oc1ccccc1` (single isomer, unassigned) [Compound 40ii Diastereomer 1], the CC50 in data set [3] is more than 50 µM. Besides, in data set [4], the “HLM (1 hr) stability (percent remaining)” value was “+ (+ ≤ 25%)”. Further, in data set [5], the “HIM (1 hr) stability (percent remaining)” value was “+++ (50% < +++ ≤ 75%)”. In addition, in data set [6] (10 μM), the “Huh-7 TP AUC” value is “++++ (1500 < ++++)”. Further, the “Huh-7 TP Cmax” value in data set [6] (10 μM test compound) is recorded as “++++ (100 < ++++)”. In [6] (10 μM, 24 hr), the “Huh-7 TP (24 hr)” value is “++ (15 < ++ ≤ 50)”. Moreover, the “Huh-7 TP (48 hr)” value in data set [6] (10 μM, 48 hr) is on record as “+++ (50 < +++ ≤ 100)”. In addition, in data set [6] (10 μM, 72 hr), the “Huh-7 TP (72 hr)” value is on record as “++++ (100 < ++++)”. The EC50 in [2] (Zluc cells, 72 hours) was in the range of 1 to 10 µM. Moreover, in [7], the “Ms Liver TP AUC” value is listed as “+++ (500 < +++ ≤ 1500)” and the “Ms Liver TP Cmax” value is “+++ (50 < +++ ≤ 100)”. Besides, in data set [8], the “Ms Plasma nucleoside AUC” value is “+++ (500 < +++ ≤ 1500)” and the “Ms Plasma nucleoside Cmax” value was “+++ (50 < +++ ≤ 100)”.
On to `CCOC(=O)COP(=O)(OC[C@H]1O[C@@H](n2ccc(=O)[nH]c2=O)[C@](C)(Cl)[C@@H]1O)Oc1ccccc1` (single isomer, unassigned) [Compound 72 Diastereomer 1], for which the CC50 in [1] is more than 50 µM. The EC50 in data set [2] (Hepatitis C virus, 72 h) is more than 10 µM.
Usually Cmax stands for the maximum level reached in the sampled fluid or tissue. As to `CC(C)OC(=O)[C@@H](C)NP(=O)(OC[C@H]1O[C@@H](n2ccc(=O)[nH]c2=O)[C@](C)(Cl)[C@@H]1O)Oc1ccccc1` (single isomer, unassigned; diastereomer 1) [Compound 40i Diastereomer 1], the “HLM (1 hr) stability (percent remaining)” value in data set [4] is given as “+ (+ ≤ 25%)”. In data set [5], the “HIM (1 hr) stability (percent remaining)” value is listed as “+++ (50% < +++ ≤ 75%)”. The CC50 in [9] was more than 50 µM. Besides, in data set [10], the “Plasma nucleoside Tmax” value was determined as 6 h and the “Plasma prodrug Tmax” value came to 2 h. In addition, in data set [10] (normalized to 1 μmol/kg dose), the “Plasma nucleoside AUC0-24” value is given as “++ (150 < ++ ≤ 500)” and the “Plasma prodrug AUC0-24” value is on record as “+ (+ ≤ 150)”. Also, the Cmax in data set [10] (normalized to 1 μmol/kg dose, read-out: Plasma nucleoside Cmax) lay in the range of 15 to 50 nM. The Cmax in [10] (normalized to 1 μmol/kg dose, read-out: Plasma prodrug Cmax) is not above 15 nM. For the same compound, in [2] (Zluc cells, 72 hours), the EC50 is more than 10 µM. Further, the “Nucleoside triphosphate in Liver C6” value in data set [11] (6 hours post dose, 10 mg/kg oral, normalized to 1 μmol/kg dose) is on record as “++++ (100 < ++++)”. Moreover, the “Nucleoside triphosphate in Liver Tmax” value in [11] (single oral 10 mg/kg) amounted to 6 h. Moreover, in data set [11] (setting [13]), the “Nucleoside triphosphate in Liver AUC0-24” value is given as “++++ (1500 < ++++)” and the “Nucleoside triphosphate in Liver Cmax” value is on record as “++++ (100 < ++++)”. Besides, in data set [8], the “Ms Plasma nucleoside AUC” value is “+++ (500 < +++ ≤ 1500)” and the “Ms Plasma nucleoside Cmax” value is reported as “+++ (50 < +++ ≤ 100)”. Further, in [12], the “MsH AUC” value was “++++ (1500 < ++++)” and the “MsH Cmax” value was “++++ (100 < ++++)”.
Regarding `CC(C)OC(=O)[C@@H](C)NP(=O)(OC[C@H]1O[C@@H](n2ccc(=O)[nH]c2=O)[C@](C)(Cl)[C@@H]1O)Oc1ccccc1` (single isomer, unassigned; diastereomer 2) [Compound 40i Diastereomer 2], the “HLM (1 hr) stability (percent remaining)” value in data set [4] was “+++ (50% < +++ ≤ 75%)”. In addition, in data set [5], the “HIM (1 hr) stability (percent remaining)” value is “++++ (75% < ++++)”. Besides, in data set [7], the “Ms Liver TP AUC” value is on record as “++++ (1500 < ++++)” and the “Ms Liver TP Cmax” value is recorded as “++++ (100 < ++++)”. For the same compound, in data set [8], the “Ms Plasma nucleoside AUC” value is “+++ (500 < +++ ≤ 1500)” and the “Ms Plasma nucleoside Cmax” value is “+++ (50 < +++ ≤ 100)”. In data set [12], the “MsH AUC” value is given as “+++ (500 < +++ ≤ 1500)” and the “MsH Cmax” value is recorded as “+++ (50 < +++ ≤ 100)”.
